This is an account of results in patent US20120283120A1, “SCREENING METHOD” (Takeda Pharmaceutical Company Limited, priority 2009, published 2012).

Common to all, as to assay type: cell-based, human
One data set deals with full-length AR. Briefly: Western blotting of AR production after siRNA transfection in JDCaP-hr cells. To be noted: 48 hr from siRNA transfection. An excerpt: (§1) An siRNA targeting exon 4b specific to ARaiv1 (siARaiv1: 5′-[…]-3′ (SEQ ID NO: 29)) was designed and synthesized by Qiagen. In addition, an siRNA targeting exon 8 specific to AR (siAR: Hs_AR—6_HP Validated siRNA: 5′-[…]-3′ (SEQ ID NO: 30)) and an siRNA cocktail containing siRNA targeting exon 1 common to AR and ARaiv1 (siDual: OTP SMART pool, L-003400-00-0005) were purchased from Qiagen and Dharmacon, respectively. siAR, siARaiv1 or siDual was transfected into JDCaP-hr cells. RNA was extracted from the cells after 48 hr from the siRNA transfection, and the expression level of the target gene was analyzed by quantitative RT-PCR. As a result, it was confirmed that gene knockdown by each siRNA was carried out sufficiently efficiently (FIG. 6a). To examine changes in the C-terminally defective-type AR protein production, which were caused by the ARaiv1 knockdown, an extract was prepared from the cells after 48 hr from the siRNA transfection, and the production of AR and β-actin was examined by Western blotting. The production of only full-length AR in the siAR transfection group, only C-terminally defective-type AR in the siARaiv1 transfection group, and the both in the siDual transfection group decreased (FIG. 6b).

A further data set relates to JDCaP-hr cells. The data set is described as follows: JDCaP-hr cell proliferation after siRNA transfection. To be noted: cultured for 5 days; for growth promotion due to DHT: DHT added; for cell proliferation (growth inhibition): androgen-free conditions. The protocol: siRNA targeting AR-specific exon 8 (siAR), siRNA targeting ARaiv1-specific exon 4b (siARaiv1) or siRNA targeting exon 1 common to the both (siDual) was transfected into JDCaP-hr cells, the cells were cultured for 5 days in an androgen-free medium added with DHT or DMSO, and the cell proliferation was measured (FIG. 7). […] On the other hand, the growth inhibitory effect was partial in the siAR transfection group.

In data set [1] the test system is C-terminally defective-type AR. The data set is described as follows: Western blotting of AR production after siRNA transfection in JDCaP-hr cells. To be noted: 48 hr from siRNA transfection.
Text: as §1
On the technique in general: Immunoblotting shows a protein as a band on a membrane.

In a further data set the test system is 22Rv1 cells. The data set is described as follows: colony formation assay of 22Rv1 cells after shRNA expression vector transfection. To be noted: androgen-free conditions. An excerpt: Expression plasmids of shRNA targeting AR-specific exon 8 (shAR), shRNA targeting ARaiv1-specific exon 4b (shARaiv1) and shRNA targeting exon 1 common to the both (shDual) were constructed using siSTRIKE U6 hairpin cloning system (Promega). The target sequences of shAR and siARaiv1 were the same as those of the above-mentioned siAR and siARaiv1. As the target sequence of shRNA specific to exon 1 (shDual), the sequence of exon 1-specific siRNA (5′-[…]-3′ (SEQ ID NO: 31)) contained in siDual was used.
The expression vector of shAR, siARaiv1 or shDual was transfected into 22Rv1 cells, and a colony formation assay was carried out under androgen-free conditions. In the siARaiv1 transfection group, the number of colonies decreased to 19% of that of the non-specific shRNA (shNS) transfection group (NS group). In the shDual transfection group, the number of colonies decreased to 4% of that of the NS group, and remarkable suppression of colony formation was observed. On the other hand, the colony formation ability of the shAR transfection group was 54% of the NS group, and the decrease was weaker as compared to the ARaiv1 knockdown group.

For data set [2], the system named is 4 kinds of ARaiv1 clones (ARaiv1, ARaiv1Δ1, ARaiv1Δ2, ARaiv1Δ3). The data set is described as follows: reporter gene assay of ARaiv1 clones with pGL3-2×PSA reporter in COS7 cell (luciferase). The following applies: bicalutamide added 24 hr after cotransfection, luciferase assay 24 hr later. The procedure:
The above-mentioned 4 kinds of ARaiv1 clones (ARaiv1 and ARaiv1Δ1, ARaiv1Δ2 and ARaiv1Δ3) were respectively subcloned to a pcDNA3.1 expression vector, and the transcription activity was examined by a reporter gene assay. The ARaiv1 clone expression vector and pGL3-2×PSA reporter were cotransfected into COS7 cell. After 24 hr, DHT or an AR antagonist bicalutamide, was added, and 24 hr later, a luciferase assay was performed.

Turning to “siAR: siRNA targeting exon 8 specific to AR, Hs_AR—6_HP Validated siRNA: 5′-ggaacucgaucguaucauu-3′ (SEQ ID NO: 30) (GGAACUCGAUCGUAUCAUU; chemistry not given here)”, the “production of full-length AR” value with full-length AR is “decreased”. In the data set on JDCaP-hr cells, the “growth promotion due to DHT” value is “remarkably inhibited” and the “cell proliferation (growth inhibition)” value is given as “partial”.

Turning to “siARaiv1: siRNA targeting exon 4b specific to ARaiv1: 5′-gattgttcttgatcacata-3′ (SEQ ID NO: 29) (GATTGTTCTTGATCACATA; listed as DNA, chemistry not given here)”, in data set [1], the “production of C-terminally defective-type AR” value is recorded as “decreased”. Besides, in the data set with JDCaP-hr cells, the “growth promotion due to DHT” value is “growth promotion due to DHT was observed” and the “cell proliferation (growth inhibition)” value was “remarkable growth inhibition”. For the same molecule, in the data set on 22Rv1 cells, the “number of colonies relative to non-specific shRNA (NS) group” value was 19%.

Turning to `CC(O)(CS(=O)(=O)c1ccc(F)cc1)C(=O)Nc1ccc(C#N)c(C(F)(F)F)c1` (centres unmarked) [bicalutamide], in data set [2], the “transcription activity of 4 kinds of ARaiv1 clones (reporter activity)” value is reported as “not inhibited”.
